In patent US20090036417A1, “COCHLEATES WITHOUT METAL CATIONS AS BRIDGING AGENTS” (priority 2002, published 2009):

Columns and labels:
[1] = Loading capacity of cochleates for molecules as bridging agents (UV absorption / HPLC); type: physicochemical; settings: with the lipid amount of column Lipids (mg): 5 mg for TAPS, 38.11 mg for Tobramycine
Protocol: Loading capacities of the new cochelates and nano-cochleates for TAS and tobramycin were determined. For TAS, known amounts of cochleates or nano-cochleates were first dissolved with chloroform, then added with water (pH=2), followed by strong shaking. The water phase was separated hereafter, and the same procedure was repeated two more times. The water phases collected three times were combined. The concentration of the extract was determined by UV absorption at 380 nm. […] The loading amount was determined based on the decreased concentration in the supernatant after cochleate formation. For mobile phase, 2.0 g of tris (hydroxymethyl) aminomethan was first dissolved with 800 ml of water, followed by addition of 20 ml of 1N H2SO4 and acetanitrile to a total volume of 2000 ml. For detectability, a solution of 2,4-dinitrofluourobene (10 mg/ml in alcohol) was prepared within 5 days prior to use and refrigerated. A water solution of tris (hydroxymethyl) aminomethane (15 mg/ml) was also prepared as a stock solution. Within 4 hours of analysis, this stock solution, 40 ml, was diluted with dimethyl sulfoxide (DMSO) to 200 ml. […] For the supernatant (the sample to be measured), 1 ml of 5.5 mg/ml of tobramycin solution was added into a liposome suspension with a lipid-to-drug ratio of 1:5. […]

E. Coli cell line, DH5α = experiment: Antibiotic activity of tobramycin in solution, cochleates and nano-cochleates (colony counting); type: cell-based; settings: 0.5 μg/ml, 37° C., 24 hrs
Protocol: FIG. 9. Antibiotic activity of tobramycin formulated in solution, cochleates and nano-cochleates. The drug of various doses were added to E. Coli prior to incubation at 37° C., followed by counting of the colonies. Tobramycin was selected as a model drug to examine the capability of cochelates and nano-cochleates to deliver hydrophilic drugs across cell membranes because the antibiotic function of tobramycin relies on its binding to ribosomes inside of cells. In other words, tobramycin's antibiotic activity reflects internalization of the drug into the cells. For this purpose, tobramycin-loaded cochleates and nano-cochleates prepared as in Example 2 were incubated with E. Coli at various doses. As a control, a tobramycin solution was also incubated with E. Coli under identical conditions. Experimentally, one drop of E. Coli cell line, DH5α, was added to 2 ml LB Broth solution and incubated at 37° C. for 24 hrs to prepare 1:10 DH5α culture solution. Then, 5 ul of the DH5α culture solution was diluted to 2 ml and tobramycin was added in the form of cochleates and nano-cochleates at the final concentrations of 0, 0.5, 1.0, 2.5, and 5.0 μg/ml, respectively. The tobramycin-added cell cultures were incubated at 37° C., with shaking at 200 rpm, for 24 hrs. […]

## NC[C@H]1O[C@H](O[C@H]2[C@H](O)[C@@H](O[C@H]3O[C@H](CO)[C@@H](O)[C@H](N)[C@H]3O)[C@H](N)C[C@@H]2N)[C@H](N)C[C@@H]1O [Tobramycine, tobramycin]
[1]
  Drug (mg) loaded in cochleates: 5.5 mg
E. Coli cell line, DH5α
  antibiotic activity of drug solution relative to large cochleates: 75 times
  antibiotic activity of drug solution relative to nano-cochleates: slightly higher
